What was measured:
GeBCAT1 = tested on: T1, GeBCAT1; test: deamination assay, LC-TOF-MS of PFBHA-derivatized keto acid; type: biochemical, Gentiana triflora; details: 120 mM alpha-ketoglutarate, 0.16 mM PLP, 4 mM DTT, 0.1 M Tris-HCl pH 8.0, 33 °C
T1 construct: open reading frame (390 aa, predicted mitochondrial transit peptide) in pEU-FLAG-GST-GW; FLAG-GST tag, no cleavage told; wheat cell-free synthesis, GST-purified
Text: deamination assay, LC-TOF-MS of PFBHA-derivatized keto acid on GeBCAT1 | Km and Vmax values of recombinant GeBCAT1 and GeBCAT2 are shown for different substrates

GeBCAT2 = tested on: T2, GeBCAT2; test: as above; type: biochemical, Gentiana triflora; details: 120 mM alpha-ketoglutarate, 0.16 mM PLP, 4 mM DTT, 0.1 M Tris-HCl pH 8.0, 33 °C
T2 construct: open reading frame (411 aa, predicted plastid transit peptide) in pEU-FLAG-GST-GW; FLAG-GST tag, no cleavage told; wheat cell-free synthesis, GST-purified
Text: deamination assay, LC-TOF-MS of PFBHA-derivatized keto acid on GeBCAT2 | Km and Vmax values of recombinant GeBCAT1 and GeBCAT2 are shown for different substrates

Km (GeBCAT1)	Km (GeBCAT2)	Structure (SMILES)
88 ± 40 µM	310 ± 15 µM	CC[C@H](C)[C@H](N)C(=O)O [Ile]
780 ± 280 µM	650 ± 29 µM	CC(C)C[C@H](N)C(=O)O [Leu]
79 ± 15 µM	4570 ± 320 µM	CC(C)[C@H](N)C(=O)O [Val]

From publication PMC12287140, “Branched-chain amino acid catabolism initiates volatile synthesis in Gentiana triflora” (Planta, 2025)
